# Measured values from patent US20100222421A1, “Usage of Baicalein in the Preparation of a Pharmaceutical Composition for the Treatment of Traumatic Brain Injury” (National Defense Medical Center, priority 2009, published 2010).
# Experiments:
# Format in all cases: in vivo, rat
# [1] = test system: rats with controlled cortical impact (CCI) injury; test: Beam walk test after CCI injury
# Method: A previously described CCI injury procedure was utilized (Chen et al., 2003). Male Sprague-Dawley rats, which have body weight of 250-300 g, were anaesthetized with sodium pentobarbital (i.p.; 50 mgkg^−1; Rhone Merieux, Harlow, UK) and placed in a stereotaxic frame. A 5-mm craniotomy was performed over the left parietal cortex, centered on the coronal suture and 3 mm lateral to the sagittal suture. Considerable care was taken to avoid injury to the underlying dura. Injury was made using a pneumatic piston with a rounded metal tip (2.5 mm diameter) that was angled 22.5° C. to the vertical so that the tip was perpendicular with the brain surface at the centre of the craniotomy. A velocity of 4 ms^−1 and a deformation depth 2 mm below the dura were used. The bone flap was immediately replaced and sealed, and the scalp was closed with sutures. Body temperature was monitored throughout the surgery by a rectal probe; temperature was maintained at 37.0±0.5° C. using a heated pad. Rats were placed in a heated cage to maintain body temperature, while recovering from anaesthesia. Baicalein (30 mg kg^−1) dissolved in 10% dimethyl sulphoxide (0.25-0.3 mL) or a corresponding volume of vehicle (10% dimethyl sulphoxide) was administered i.p. immediately following injury or daily for 4 days (immediately, 25, 49 and 73 h) after injury. Behaviour testing using the rotarod, tactile adhesive removal, mNSS and beam walk tests was performed at 28 hours as well as 4, 7, 14, 21 and 28 days post-injury. At 14 and 28 days, the animals were killed, perfused intravascularly and their brains were processed with cresyl violet staining to assess contusion volume (n=8 for each group). […] Behaviour testing was performed before CCI and at […] by an observer who was unaware of the experimental treatments. The battery of tests consisted of the rotarod motor test, tactile adhesive-removal somatosensory test, mNSS and beam walk test. Animals were pretrained for 3 days for the rotarod, tactile adhesiveremoval somatosensory and beam walk tests (see below). The beam walk test was utilized to evaluate fine motor coordination and function (Feeney et al., 1982). Rats escaped from a bright light and loud white noise by walking along a narrowed wooden beam (2.5×122.0 cm) to enter a darkened goal box at the opposite end of the beam. The latency for the rat to reach the goal box (not to exceed 60 s) and hindlimb performance as he traversed the beam (based on a 1-7 rating scale) were recorded. A score of 7 was given when animals traversed the beam with two or less foot slips. A score of 6 was given when animals traversed the beam with less than 50% foot slips. A score of 5 was given for more than 50% but less than 100% foot slips. A score of 4 was given for 100% foot slips. A score of 3 was given for traversal with the affected limb extended and not reaching the surface of the beam. A score of 2 was given when the animal was able to balance on the beam but not traverse it. A score of 1 was given when the animal could not balance on the beam. Three trials were recorded 1 hour before CCI (baseline), and each day after CCI. Mean values of latency and score for each day were computed.
# TNF-α-positive cells = test: Immunohistochemistry, TNF-α-positive cells after CCI injury; conditions: single-dose 30 mg kg^-1 i.p.; cortical tissue adjacent to contusion core, 1 day post-injury
# Method: (§1) A previously described CCI injury procedure was utilized (Chen et al., 2003). Male Sprague-Dawley rats, which have body weight of 250-300 g, were anaesthetized with sodium pentobarbital (i.p.; 50 mgkg^−1; Rhone Merieux, Harlow, UK) and placed in a stereotaxic frame. A 5-mm craniotomy was performed over the left parietal cortex, centered on the coronal suture and 3 mm lateral to the sagittal suture. Considerable care was taken to avoid injury to the underlying dura. Injury was made using a pneumatic piston with a rounded metal tip (2.5 mm diameter) that was angled 22.5° C. to the vertical so that the tip was perpendicular with the brain surface at the centre of the craniotomy. A velocity of 4 ms^−1 and a deformation depth 2 mm below the dura were used. The bone flap was immediately replaced and sealed, and the scalp was closed with sutures. Body temperature was monitored throughout the surgery by a rectal probe; temperature was maintained at 37.0±0.5° C. using a heated pad. […] Testing after injury was as follows: (1) real-time quantitative RT-PCR analysis for TNF-α, IL-1β and IL-6 mRNA expression at 6 h post-injury (n=7 for each group); (2) FluoroJade B (FJB) staining, TNF-α, IL-1β and IL-6 immunohistochemistry, as well as ELISA at 24 h post-injury to assess degenerative neurons and to determine cytokine expression (n=7 for each group). […]
# IL-6-positive cells = test: Immunohistochemistry, IL-6-positive cells after CCI injury; conditions: single-dose 30 mg kg^-1 i.p.; cortical tissue adjacent to contusion core, 1 day post-injury
# Method: as §1
smiles,measurement,setting,value
O=c1cc(-c2ccccc2)oc2cc(O)c(O)c(O)c12 [baicalein],differences in hindlimb motor scores between single-dose and multiple-dose groups,"[1]; 30 mg kg^-1 i.p., any testing day, P>0.05",not significant
same,"beam walk latencies, multiple-dose versus single-dose group","[1]; 30 mg kg^-1 i.p., days 1 and 4, P<0.05",significantly shorter
same,beam walk latencies versus vehicle group,"[1]; multiple-dose 30 mg kg^-1 i.p. daily for 4 days, days 1, 4, 7, 21 and 28, P<0.05",significantly shorter
same,decrease in hindlimb motor scores (beam walk) versus vehicle group,"[1]; multiple-dose 30 mg kg^-1 i.p. daily for 4 days, days 1, 4, 14, 21 and 28, P<0.05",significantly different
same,decrease in hindlimb motor scores (beam walk) versus vehicle group,"[1]; single-dose 30 mg kg^-1 i.p., days 4, 7, 14 and 21, P<0.05",significantly different
same,beam walk latencies versus vehicle group,"[1]; single-dose 30 mg kg^-1 i.p., days 4 and 21, P<0.05",significantly shorter
same,reduction in TNF-α-positive cells relative to vehicle,TNF-α-positive cells,37%
same,reduction in IL-6-positive cells relative to vehicle,IL-6-positive cells,33%
